Like-named read-outs stand apart in the source and are kept apart here.
Legend:
[1] = molecular target: T1, porcine pancreatic lipase (Sus scrofa, UniProt P00591); experiment: Inhibition kinetics of porcine pancreatic lipase (nonlinear regression, Solver); format: biochemical; design: compare it to the effects of the porcine pancreas (type II, EC 3.1.1.3); from tissue; host or cells: porcine pancreas (type II preparation); details: for Inhibition Model / Ki / Vmax: porcine pancreatic lipase; for Ki / Vmax: ± SEM; for Vmax: in µmol/min
T1 sequence (P00591 1-450): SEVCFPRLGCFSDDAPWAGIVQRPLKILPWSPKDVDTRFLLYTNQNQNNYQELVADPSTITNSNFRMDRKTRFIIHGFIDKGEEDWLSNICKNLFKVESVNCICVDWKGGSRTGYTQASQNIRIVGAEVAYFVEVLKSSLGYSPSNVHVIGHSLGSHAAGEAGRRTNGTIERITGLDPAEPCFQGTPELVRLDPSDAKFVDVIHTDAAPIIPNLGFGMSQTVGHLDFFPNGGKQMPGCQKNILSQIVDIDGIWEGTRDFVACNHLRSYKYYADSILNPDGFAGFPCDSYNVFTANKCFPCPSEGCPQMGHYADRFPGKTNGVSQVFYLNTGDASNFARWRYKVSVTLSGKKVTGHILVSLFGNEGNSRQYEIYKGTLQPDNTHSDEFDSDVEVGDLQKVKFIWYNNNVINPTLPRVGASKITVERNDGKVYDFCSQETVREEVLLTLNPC

human pancreatic lipase [2] = molecular target: T2, human pancreatic lipase (Homo sapiens, UniProt P16233); experiment: In vitro assay using human pancreatic lipase (4-MUO hydrolysis, fluorometric); format: biochemical; details: for IC50: human PL 2 U/mL, 4-MUO 0.05 mM, mean ± SEM;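 as to all read-outs here: Read-out is the initial rate of fluorescent 4-MU release as HPL cleaves the 4-MUO substrate, a rate that scales with the amount of enzyme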
T2 construct: PL from the human pancreas (triacylglycerol acyl hydrolase, EC 3.1.1.3); from tissue; host or cells: human pancreas
T2 sequence (P16233 17-465): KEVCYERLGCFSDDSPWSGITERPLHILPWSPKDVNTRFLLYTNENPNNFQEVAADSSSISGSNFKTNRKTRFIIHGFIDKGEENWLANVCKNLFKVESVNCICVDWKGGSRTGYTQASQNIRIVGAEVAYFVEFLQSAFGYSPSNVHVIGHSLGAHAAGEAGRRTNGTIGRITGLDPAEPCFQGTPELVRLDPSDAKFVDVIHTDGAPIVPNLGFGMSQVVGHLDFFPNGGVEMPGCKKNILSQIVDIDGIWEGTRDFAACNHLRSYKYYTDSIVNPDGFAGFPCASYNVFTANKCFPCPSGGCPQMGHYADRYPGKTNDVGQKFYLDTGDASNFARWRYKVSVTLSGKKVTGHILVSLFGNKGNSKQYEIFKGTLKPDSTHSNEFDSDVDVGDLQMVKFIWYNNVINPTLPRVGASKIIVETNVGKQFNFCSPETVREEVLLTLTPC

human pancreatic lipase [3] = molecular target: T2, human pancreatic lipase; experiment: Inhibition kinetics of human pancreatic lipase (nonlinear regression, Solver); format: biochemical
[4] = molecular target: T1, porcine pancreatic lipase; experiment: In vitro assay using porcine pancreatic lipase (4-MUO hydrolysis, fluorometric);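 also: product 4-methylumbeliferone formation tracked fluorometrically, catalytic rate from RFU slope over the 10–30 min window, compounds checked beforehand for own fluorescence, at least three independent experiments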
[5] = molecular target: T1, porcine pancreatic lipase; design: compare it to the effects of the porcine pancreas (type II, EC 3.1.1.3); from tissue; host or cells: porcine pancreas (type II preparation); details: not calculated in this paper; cited from earlier work
[6] = competitive constant, read-out: Kic

Structure (SMILES)	Inhibition Model [1]	Ki [1, 6] [µM]	Vmax [1]	binding affinity to PPL, times higher than the other compounds (from Kic) ([1]; versus 38, 27 and 41)	IC50 (human pancreatic lipase [2]) [µM]	Inhibition Model (human pancreatic lipase [3]; human pancreatic lipase)	Ki (human pancreatic lipase [3]; human pancreatic lipase, first Kic column of Table 4, ± SEM) [µM]	Vmax (human pancreatic lipase [3]; human pancreatic lipase, ± SEM)	potency against HPL from Kic, times higher than 38 (myricetin) (human pancreatic lipase [3]; versus 38)	IC50 [4] [µM]	Ki ([1]; uncompetitive constant, read-out: Kiu) [µM]	inhibition at 100 µM (human pancreatic lipase [2]; at 100 μM, read-out: PL Inhibition (%) ± SEM, Human) [%]	type of PL inhibition [5]
CCCCCCCCCCc1c(-c2ccc(O)c(O)c2)oc2cc(O)cc(O)c2c1=O [Flavonoid 30]	Competitive	1.78 ± 0.04	507 ± 4	approximately 10	3.2 ± 0.1	mixed-type	1.3 ± 0.3	260 ± 10	approximately 60	7.3 ± 0.6	–	–	–
O=c1c(O)c(-c2cc(O)c(O)c(O)c2)oc2cc(O)cc(O)c12 [Flavonoid 38, Myricetin]	–	12 ± 0.8	–	–	25 ± 2	Noncompetitive	–	–	–	16 ± 1	58 ± 3	–	–
O=C(O[C@@H]1Cc2c(O)cc(O)cc2O[C@@H]1c1cc(O)c(O)c(O)c1)c1cc(O)c(O)c(O)c1 [Flavonoid 41, (–)-Epigallocatechin gallate]	Competitive	21 ± 3	680 ± 7	–	–	–	–	–	–	32 ± 4	–	< 30	–
CCCCCCCCCCC[C@@H](C[C@@H]1OC(=O)[C@H]1CCCCCC)OC(=O)[C@H](CC(C)C)NC=O [Orlistat]	–	–	–	–	–	–	–	–	–	–	–	–	irreversible

From PMC11859905, “Flavonoids as Potential Modulators of Pancreatic Lipase Catalytic Activity” (Pharmaceutics, 2025)
